Experimental data published in ChEMBL document CHEMBL1909294, “Translating clinical findings into knowledge in drug safety evaluation--drug induced liver injury prediction system (DILIps)” (PLoS Comput Biol, 2011).

Tests used:
Hepatotoxicity [1] = tested on: Hepatotoxicity;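 as to HepSE bilirubinemia: bilirubinemia hepatic side effect score drawn from the DILIps training data, a prediction system for drug-induced liver injury; call rule not given here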;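 as to HepSE cholecystitis: Cholecystitis-related hepatic side effect score drawn from the DILIps (drug-induced liver injury prediction) training data set; call rule not given here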;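 as to HepSE cholelithiasis: hepatic side effect score for cholelithiasis, drawn from the DILIps training data for predicting drug-induced liver injury; call rule not given here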;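 as to HepSE cirrhosis: cirrhosis hepatic side effect score taken from the DILIps (drug-induced liver injury prediction) training set; call rule not given here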;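 as to HepSE elevated liver function tests: hepatic side effect score for raised liver function tests, as recorded in the DILIps training set used for predicting drug-induced liver injury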; as to HepSE hepatic failure: call rule not given here;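 as to HepSE hepatomegaly: hepatic side effect score for hepatomegaly, taken from the training set of the DILIps drug-induced liver injury prediction system; call rule not given here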
Hepatotoxicity [2] = tested on: Hepatotoxicity; remark: listed apart in the source;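 as to HepSE bilirubinemia: bilirubinemia hepatic side effect score drawn from the DILIps training data, a prediction system for drug-induced liver injury; call rule not given here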;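 as to HepSE cholecystitis: Cholecystitis-related hepatic side effect score drawn from the DILIps (drug-induced liver injury prediction) training data set; call rule not given here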;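 as to HepSE cholelithiasis: hepatic side effect score for cholelithiasis, drawn from the DILIps training data for predicting drug-induced liver injury; call rule not given here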;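 as to HepSE cirrhosis: cirrhosis hepatic side effect score taken from the DILIps (drug-induced liver injury prediction) training set; call rule not given here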;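 as to HepSE elevated liver function tests: hepatic side effect score for raised liver function tests, as recorded in the DILIps training set used for predicting drug-induced liver injury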; as to HepSE hepatic failure: call rule not given here
Hepatotoxicity [3] = tested on: Hepatotoxicity; remark: listed apart in the source;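 as to HepSE bilirubinemia: bilirubinemia hepatic side effect score drawn from the DILIps training data, a prediction system for drug-induced liver injury; call rule not given here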;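 as to HepSE cholecystitis: Cholecystitis-related hepatic side effect score drawn from the DILIps (drug-induced liver injury prediction) training data set; call rule not given here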;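 as to HepSE cholelithiasis: hepatic side effect score for cholelithiasis, drawn from the DILIps training data for predicting drug-induced liver injury; call rule not given here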;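 as to HepSE cirrhosis: cirrhosis hepatic side effect score taken from the DILIps (drug-induced liver injury prediction) training set; call rule not given here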;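 as to HepSE elevated liver function tests: hepatic side effect score for raised liver function tests, as recorded in the DILIps training set used for predicting drug-induced liver injury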; as to HepSE hepatic failure: call rule not given here
Hepatotoxicity [4] = tested on: Hepatotoxicity; remark: listed apart in the source;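 as to HepSE bilirubinemia: bilirubinemia hepatic side effect score drawn from the DILIps training data, a prediction system for drug-induced liver injury; call rule not given here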;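 as to HepSE cholecystitis: Cholecystitis-related hepatic side effect score drawn from the DILIps (drug-induced liver injury prediction) training data set; call rule not given here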;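 as to HepSE cholelithiasis: hepatic side effect score for cholelithiasis, drawn from the DILIps training data for predicting drug-induced liver injury; call rule not given here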;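 as to HepSE cirrhosis: cirrhosis hepatic side effect score taken from the DILIps (drug-induced liver injury prediction) training set; call rule not given here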;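 as to HepSE elevated liver function tests: hepatic side effect score for raised liver function tests, as recorded in the DILIps training set used for predicting drug-induced liver injury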; as to HepSE hepatic failure: call rule not given here
Hepatotoxicity [5] = tested on: Hepatotoxicity; remark: listed apart in the source; as to HepSE hepatic failure: call rule not given here
Hepatotoxicity [6] = tested on: Hepatotoxicity; remark: listed apart in the source; as to HepSE hepatic failure: call rule not given here
Hepatotoxicity [7] = tested on: Hepatotoxicity; remark: listed apart in the source
Hepatotoxicity [8] = tested on: Hepatotoxicity; remark: listed apart in the source
Hepatotoxicity [9] = tested on: Hepatotoxicity; remark: listed apart in the source
Hepatotoxicity [10] = tested on: Hepatotoxicity; remark: listed apart in the source
Hepatotoxicity [11] = tested on: Hepatotoxicity; remark: listed apart in the source
Hepatotoxicity [12] = tested on: Hepatotoxicity; remark: listed apart in the source
Hepatotoxicity [13] = tested on: Hepatotoxicity; remark: listed apart in the source
Hepatotoxicity [14] = tested on: Hepatotoxicity; remark: listed apart in the source

| SMILES | HepSE_bilirubinemia (Hepatotoxicity [1]) | HepSE_cholecystitis (Hepatotoxicity [2]) | HepSE_cholelithiasis (Hepatotoxicity [3]) | HepSE_cirrhosis (Hepatotoxicity [4]) | HepSE_elevated liver function tests (Hepatotoxicity [5]) | HepSE_hepatic failure (Hepatotoxicity [6]) | HepSE_hepatic necrosis (Hepatotoxicity [7]) | HepSE_hepatitis (Hepatotoxicity [8]) | HepSE_hepatomegaly (Hepatotoxicity [9]) | HepSE_jaundice (Hepatotoxicity [10]) | HepSE_liver disease (Hepatotoxicity [11]) | HepSE_liver fatty (Hepatotoxicity [12]) | HepSE_liver function tests abnormal (Hepatotoxicity [13]) | HepSE_Combined Scores (Hepatotoxicity [14]) |
| --- | --- | --- | --- | --- | --- | --- | --- | --- | --- | --- | --- | --- | --- | --- |
| CC(C)OC(=O)CCC/C=C\C[C@@H]1[C@@H](/C=C/[C@@H](O)COc2cccc(C(F)(F)F)c2)[C@H](O)C[C@@H]1O [TRAVOPROST] | 0 | 0 | 0 | 0 | 0 | 0 | 0 | 0 | 0 | 0 | 0 | 0 | 0 | 0 |
| O=c1n(CCCN2CCN(c3cccc(Cl)c3)CC2)nc2ccccn12 [TRAZODONE] | 1 | 0 | 0 | 0 | 0 | 0 | 0 | 0 | 0 | 1 | 0 | 0 | 0 | 2 |
| CCCCC[C@H](O)CC[C@@H]1[C@H]2Cc3cccc(OCC(=O)O)c3C[C@H]2C[C@H]1O [TREPROSTINIL] | 0 | 0 | 0 | 0 | 0 | 0 | 0 | 0 | 0 | 0 | 0 | 0 | 0 | 0 |
| CC1=C(/C=C/C(C)=C/C=C/C(C)=C/C(=O)O)C(C)(C)CCC1 [TRETINOIN] | 0 | 0 | 0 | 0 | 0 | 0 | 0 | 1 | 0 | 0 | 1 | 0 | 0 | 2 |
| C[C@]12C=CC(=O)C=C1CC[C@H]1[C@@H]3C[C@@H](O)[C@](O)(C(=O)CO)[C@@]3(C)C[C@H](O)[C@@]12F [TRIAMCINOLONE] | 0 | 0 | 0 | 0 | 0 | 0 | 0 | 0 | 1 | 0 | 0 | 0 | 0 | 1 |
| Cc1nnc2n1-c1ccc(Cl)cc1C(c1ccccc1Cl)=NC2 [TRIAZOLAM] | 0 | 0 | 0 | 0 | 0 | 1 | 0 | 0 | 0 | 1 | 0 | 0 | 0 | 2 |
| CN1CCN(CCCN2c3ccccc3Sc3ccc(C(F)(F)F)cc32)CC1 [TRIFLUOPERAZINE] | 0 | 0 | 0 | 0 | 0 | 0 | 0 | 0 | 0 | 1 | 0 | 0 | 0 | 1 |
| O=c1[nH]c(=O)n([C@H]2C[C@H](O)[C@@H](CO)O2)cc1C(F)(F)F [TRIFLURIDINE] | 0 | 0 | 0 | 0 | 0 | 0 | 0 | 0 | 0 | 0 | 0 | 0 | 0 | 0 |
